According to patent US20090291938A1 (TAKEDA PHARMACEUTICAL COMPANY LIMITED, priority 2007, published 2009):

What follows are molecules tested on HT29 human colorectal adenocarcinoma cell line (assay: cell proliferation assay (Cell Titer-Glo luminescent cell viability assay)). Details: HT-29, cell proliferative assay, HT29 cells, 72 hr treatment, values given as ranges, read-out: pIC50 (converted).
Assay type: cell-based
Experimental: The cell culture and proliferation assay may be carried out as follows: the HT29 human colorectal adenocarcinoma cell line (ATCC, USA) was maintained in Dulbecco's Modified Eagle's Medium (Invitrogen, USA) supplemented with 10% fetal bovine serum (JRH, USA). The cell proliferation assay was carried out with the Cell Titer-Glo luminescent cell viability assay (Promega, USA) according to the manufacture's instruction after the 72 hr treatment of the cells in the presence of the compounds. The cell viability was shown as a percentage of DMSO treated cells.

SMILES | IC50
CNC(=O)c1ccc(Nc2ncc3c(n2)N(C2CCCC2)CCC(=O)N3C)c(OC)c1 [Compound 10, 4-[(9-cyclopentyl-5-methyl-6-oxo-6,7,8,9-tetrahydro-5H-pyrimido[4,5-b][1,4]diazepin-2-yl)amino]-3-methoxy-N-methylbenzamide] | 3.16 to 10 nM
COc1cc(C(=O)NC2CCN(C)CC2)ccc1Nc1ncc2c(n1)N(C1CCCC1)CC1(CC1)C(=O)N2C [Compound 33, 4-(9′-cyclopentyl-5′-methyl-6′-oxo-5′,6′,8′,9′-tetrahydrospiro[cyclopropane-1,7′-pyrimido[4,5-b][1,4]diazepine]-2′-ylamino)-3-methoxy-N-(1-methylpiperidin-4-yl)benzamide] | 1 to 2.51 nM
CC[C@H]1CN(C2CCCC2)c2nc(Nc3ccc(C(=O)NC4CCN(C)CC4)cc3OC)ncc2N(C)C1=O [Compound 36, (S)-4-(9-Cyclopentyl-7-ethyl-5-methyl-6-oxo-6,7,8,9-tetrahydro-5H-pyrimido[4,5-b][1,4]diazepin-2-ylamino)-3-methoxy-N-(1-methyl-piperidin-4-yl)-benzamide] | 3.16 to 10 nM
COc1cc(C(=O)NC2CCN(S(C)(=O)=O)CC2)ccc1Nc1ncc2c(n1)N(C1CCCC1)CCC(=O)N2C [Compound 37, 4-(9-cyclopentyl-5-methyl-6-oxo-6,7,8,9-tetrahydro-5H-pyrimido[4,5-b][1,4]diazepin-2-ylamino)-3-methoxy N-(1-(methylsulfonyl)piperidin-4-yl)benzamide] | 3.16 to 10 nM
COc1cc(C(=O)NCCCN2CCCC2=O)ccc1Nc1ncc2c(n1)N(C1CCCC1)CCC(=O)N2C [Compound 38, 4-(9-cyclopentyl-5-methyl-6-oxo-6,7,8,9-tetrahydro-5H-pyrimido[4,5-b][1,4]diazepin-2-ylamino)-3-methoxy-N-(3-(2-oxopyrrolidin-1-yl)propyl)benzamide] | 3.16 to 10 nM
COc1cc(C(=O)NC2CCN(C(C)=O)CC2)ccc1Nc1ncc2c(n1)N(C1CCCC1)CCC(=O)N2C [Compound 39, N-(1-acetylpiperidin-4-yl)-4-(9-cyclopentyl-5-methyl-6-oxo-6,7,8,9-tetrahydro-5H-pyrimido[4,5-b][1,4]diazepin-2-ylamino)-3-methoxybenzamide] | 1 to 2.51 nM
COc1cc(C(=O)N[C@H]2CCNC2)ccc1Nc1ncc2c(n1)N(C1CCCC1)CCC(=O)N2C [Compound 40, (S)-4-(9-cyclopentyl-5-methyl-6-oxo-6,7,8,9-tetrahydro-5H-pyrimido[4,5-b][1,4]diazepin-2-ylamino)-3-methoxy-N-(pyrrolidin-3yl)benzamide] | > 10 nM
COc1cc(C(=O)N[C@@H]2CCNC2)ccc1Nc1ncc2c(n1)N(C1CCCC1)CCC(=O)N2C [Compound 41, (R)-4-(9-cyclopentyl-5-methyl-6-oxo-6,7,8,9-tetrahydro-5H-pyrimido[4,5-b][1,4]diazepin-2-ylamino)-3-methoxy-N-(pyrrolidin-3-yl)benzamide] | > 10 nM
COc1cc(C(=O)NC2CCOCC2)ccc1Nc1ncc2c(n1)N(C1CCCC1)CCC(=O)N2C [Compound 42, 4-(9-cyclopentyl-5-methyl-6-oxo-6,7,8,9-tetrahydro-5H-pyrimido[4,5-b][1,4]diazepin-2-ylamino)-3-methoxy-N-(tetrahydro-2H-pyran-4-yl)benzamide] | 3.16 to 10 nM
COc1cc(C(=O)NCCNC(C)=O)ccc1Nc1ncc2c(n1)N(C1CCCC1)CCC(=O)N2C [Compound 43, N-(2-acetamidoethyl)-4-(9-cyclopentyl-5-methyl-6-oxo-6,7,8,9-tetrahydro-5H-pyrimido[4,5-b][1,4]diazepin-2-ylamino)-3-methoxybenzamide] | > 10 nM
COc1cc(C(=O)NCCN2CCCC2=O)ccc1Nc1ncc2c(n1)N(C1CCCC1)CCC(=O)N2C [Compound 46, 4-(9-cyclopentyl-5-methyl-6-oxo-6,7,8,9-tetrahydro-5H-pyrimido[4,5-b][1,4]diazepin-2-ylamino)-3-methoxy-N-(2-(2-oxopyrrolidin-1-yl)ethyl)benzamide] | 3.16 to 10 nM
